These are literature values, as cited in patent publication US20220409549A1, “ORAL PRODUCT TABLET AND METHOD OF MANUFACTURE” (NICOVENTURES TRADING LIMITED, priority 2021, published 2022).

Where two headings read alike, the source gives them in different places.

The conditions of data set [1]: for logP: organic acids of Table 1, octanol and water.
For data set [2] the following is noted: for solubility: fats, alcohols, water.
The conditions of data set [3]: converts via isomerization into trans-bixin.

Take `CC(C)[C@@H]1CC[C@@H](C)C[C@H]1OC(=O)CCC(=O)O` [monomenthyl succinate]: the log partition coefficient (logP) in data set [1] is on record as 3.

With `C=C(C)[C@@H]1CCC(C)=C[C@H]1c1c(O)cc(CCCCC)cc1O` [CBD, cannabidiol, reference compound], the “solubility in an aqueous environment (e.g., saliva)” value in data set [2] was “insoluble”. For the same compound, the logP value result in data set [1] (CBD) is given as “about 6.5”.

Turning to ethyl benzoic acid, the logP in data set [1] is 2.9.

As for isopropyl benzoic acid, the logP in data set [1] was 3.5.

Regarding `COC(=O)/C=C/C(C)=C\C=C\C(C)=C\C=C\C=C(C)\C=C\C=C(C)\C=C\C(=O)O` [bixin], the “chemical stability when isolated” value in data set [3] is given as “chemically unstable”. Moreover, the solubility entry in data set [2] is “soluble in fats and alcohols but insoluble in water”.

`CC(/C=C/C=C(C)/C=C/C(=O)O)=C\C=C\C=C(C)\C=C\C=C(C)\C=C\C(=O)O` (stereo in doubt) [norbixin, (2E,4E,6E,8E,10E,12E,14E,16E,18E)-4,8,13,17-tetramethylicosa-2,4,6,8,10,12,14,16,18-nonaenedioic acid]: the solubility entry in data set [2] is reported as “water soluble”.

With `CN1CCCC1c1cccnc1` (centres unmarked) [nicotine, reference compound], the partitioning into octanol entry is listed as “lower partitioning into octanol” in data set [1] (acidic pH values, about 6.5 to about 4, protonated form) and “high partitioning into octanol” in data set [1] (alkaline pH values, about 7.5 to about 9, free base form).

As to tocopherol succinate, the logP in data set [1] is given as 10.2.

What is called logP is a log measure of how a compound divides between an organic and an aqueous phase.
